Data as given in patent publication US20220227785A1, “NOVEL PHENYL AND PYRIDYL UREAS ACTIVE AGAINST THE HEPATITIS B VIRUS (HBV)” (AICURIS GMBH & CO. KG, priority 2019, published 2022).

What follows are compounds tested on HBV in HepAD38 cells. Settings: Hepatitis B virus, HePAD38, 144 h, read-out: Cell activity.

CN(C(=O)c1cnn2c1CN(C(=O)Nc1ccc(F)c(Cl)c1)CC2)C1(c2cccc(C(=O)O)c2)CC1 [Example 1, 3-(1-{N-methyl-5-[(3-chloro-4-fluorophenyl)carbamoyl]-4H,5H,6H,7H-pyrazolo[1,5-a]pyrazine-3-amido}cyclopropyl)benzoic acid] and CN(C(=O)c1cnn2c1CN(C(=O)Nc1ccc(F)c(Cl)c1)CC2)C1(c2ccc(C(=O)O)cc2)CC1 [Example 2, 4-(1-{N-methyl-5-[(3-chloro-4-fluorophenyl)carbamoyl]-4H,5H,6H,7H-pyrazolo[1,5-a]pyrazine-3-amido}cyclopropyl)benzoic acid] cannot be ordered by EC50: under 1000 nM for the first, under 1000 nM for the second.

COCC1(N(C)C(=O)c2noc3c2CN(C(=O)Nc2ccc(F)c(Cl)c2)CC3)CC1 [Example 3, N5-(3-chloro-4-fluorophenyl)-N3-[1-(methoxymethyl)cyclopropyl]-N3-methyl-4H,5H,6H,7H-[1,2]oxazolo[4,5-c]pyridine-3,5-dicarboxamide] and C[C@@H](NC(=O)c1noc2c1CN(C(=O)Nc1ccc(F)c(Cl)c1)CC2)C(F)(F)F [Example 8, N5-(3-chloro-4-fluorophenyl)-N3-[(2R)-1,1,1-trifluoropropan-2-yl]-4H,5H,6H,7H-[1,2]oxazolo[4,5-c]pyridine-3,5-dicarboxamide] cannot be ordered by EC50: under 1000 nM for the first, under 1000 nM for the second.

CN1C(=O)c2c3c(nn2CC12CC2)CCN(C(=O)Nc1ccc(F)c(Cl)c1)C3 [Example 4, N-(3-chloro-4-fluorophenyl)-4′-methyl-3′-oxo-4′,7′,8′,12′-tetraazaspiro[cyclopropane-1,5′-tricyclo[7.4.0.0^2,7]tridecane]-1′,8′-diene-12′-carboxamide] and CN1C(=O)c2c3c(nn2CCC12CC2)CCN(C(=O)Nc1ccc(F)c(Cl)c1)C3 [Example 11, N-(3-chloro-4-fluorophenyl)-13′-methyl-14′-oxo-4′,8′,9′,13′-tetraazaspiro[cyclopropane-1,12′-tricyclo[7.5.0.0^2,^7]tetradecane]-1′,7′-diene-4′-carboxamide] cannot be ordered by EC50: under 1000 nM for the first, under 1000 nM for the second.

O=C(O)c1cnc(C2(NC(=O)c3cnn4c3CN(C(=O)Nc3ccc(F)c(Cl)c3)CC4)CC2)nc1 [Example 5, 2-(1-{5-[(3-chloro-4-fluorophenyl)carbamoyl]-4H,5H,6H,7H-pyrazolo[1,5-a]pyrazine-3-amido}cyclopropyl)pyrimidine-5-carboxylic acid] and O=C(O)c1ccc(C2(NC(=O)c3cnn4c3CN(C(=O)Nc3ccc(F)c(Cl)c3)CC4)CC2)nc1 [Example 6, 6-(1-{5-[(3-chloro-4-fluorophenyl)carbamoyl]-4H,5H,6H,7H-pyrazolo[1,5-a]pyrazine-3-amido}cyclopropyl)pyridine-3-carboxylic acid] cannot be ordered by EC50: under 1000 nM for the first, under 1000 nM for the second.

CC1Cn2ncc(C(=O)N(C)C3(c4ccc(C(=O)O)cc4)CC3)c2CN1C(=O)Nc1ccc(F)c(Cl)c1 (centres unmarked) [Example 9, 4-(1-{N-methyl-5-[(3-chloro-4-fluorophenyl)carbamoyl]-6-methyl-4H,5H,6H,7H-pyrazolo[1,5-a]pyrazine-3-amido}cyclopropyl)benzoic acid] and CC1Cn2cnc(C(=O)N(C)C3(c4cccc(C(=O)O)c4)CC3)c2CN1C(=O)Nc1ccc(F)c(Cl)c1 (centres unmarked) [Example 14, 3-(1-{N-methyl7-[(3-chloro-4-fluorophenyl)carbamoyl]-6-methyl-5H,6H,7H,8H-imidazo[1,5-a]pyrazine-1-amido}cyclopropyl)benzoic acid] cannot be ordered by EC50: under 1000 nM for the first, under 1000 nM for the second.

CN1C(=O)c2c3c(nn2CC12CC2)CCN(C(=O)Nc1ccc(F)c(F)c1)C3 [Example 10, N-(3,4-difluorophenyl)-4′-methyl-3′-oxo-4′,7′,8′,12′-tetraazaspiro[cyclopropane-1,5′-tricyclo[7.4.0.0^2,^7]tridecane]-1′,8′-diene-12′-carboxamide] and CCN1C(=O)c2c3c(nn2CCC12CC2)CCN(C(=O)Nc1ccc(F)c(Cl)c1)C3 [Example 28, N-(3-chloro-4-fluorophenyl)-13′-ethyl-14′-oxo-4′,8′,9′,13′-tetraazaspiro[cyclopropane-1,12′-tricyclo[7.5.0.0^2,^7]tetradecane]-1′,7′-diene-4′-carboxamide] cannot be ordered by EC50: under 1000 nM for the first, under 1000 nM for the second.

CN(C(=O)c1[nH]nc2c1CN(C(=O)Nc1ccc(F)c(Cl)c1)CC2)C1(c2ncc(C(=O)O)cn2)CC1 [Example 12, 2-(1-{N-methyl-5-[(3-chloro-4-fluorophenyl)carbamoyl]-2H,4H,5H,6H,7H-pyrazolo[4,3-c]pyridine-3-amido}cyclopropyl)pyrimidine-5-carboxylic acid] and CN(C(=O)c1[nH]nc2c1CN(C(=O)Nc1ccc(F)c(Cl)c1)CC2)C1(c2ccc(C(=O)O)cc2)CC1 [Example 13, 4-(1-{N-methyl-5-[(3-chloro-4-fluorophenyl)carbamoyl]-2H,4H,5H,6H,7H-pyrazolo[4,3-c]pyridine-3-amido}cyclopropyl)benzoic acid] cannot be ordered by EC50: 1000 to 10000 nM for the first, under 100000 nM for the second.

First: CN(C(=O)c1cnn2c1CN(C(=O)Nc1ccc(F)c(Cl)c1)CC2)C1(c2nccc(C(=O)O)n2)CC1 [Example 15, 2-(1-{N-methyl-5-[(3-chloro-4-fluorophenyl)carbamoyl]-4H,5H,6H,7H-pyrazolo[1,5-a]pyrazine-3-amido}cyclopropyl)pyrimidine-4-carboxylic acid]
Second: CN(C(=O)c1cnn2c1CN(C(=O)Nc1ccc(F)c(Cl)c1)CC2)C1(c2cc(C(=O)O)on2)CC1 [Example 27, 3-(1-{N-methyl-5-[(3-chloro-4-fluorophenyl)carbamoyl]-4H,5H,6H,7H-pyrazolo[1,5-a]pyrazine-3-amido}cyclopropyl)-1,2-oxazole-5-carboxylic acid #]
The EC50 of the first is higher: 1000 to 10000 nM for the first, under 1000 nM for the second. The second is the more potent here.

CN(C(=O)c1cnn2c1CN(C(=O)Nc1ccc(F)c(Cl)c1)CC2)C1(Cc2ccc(C(=O)O)cc2)CC1 [Example 16, 4-[(1-{N-methyl-5-[(3-chloro-4-fluorophenyl)carbamoyl]-4H,5H,6H,7H-pyrazolo[1,5-a]pyrazine-3-amido}cyclopropyl)methyl]benzoic acid] and O=C(O)c1ccc(C2(NC(=O)c3cnn4c3CN(C(=O)Nc3ccc(F)c(Cl)c3)CC4)CC2)cc1 [Example 17, 4-(1-{5-[(3-chloro-4-fluorophenyl)carbamoyl]-4H,5H,6H,7H-pyrazolo[1,5-a]pyrazine-3-amido}cyclopropyl)benzoic acid] cannot be ordered by EC50: under 1000 nM for the first, under 100000 nM for the second.

First: O=C(O)c1cccc(C2(NC(=O)c3cnn4c3CN(C(=O)Nc3ccc(F)c(Cl)c3)CC4)CC2)c1 [Example 18, 3-(1-{5-[(3-chloro-4-fluorophenyl)carbamoyl]-4H,5H,6H,7H-pyrazolo[1,5-a]pyrazine-3-amido}cyclopropyl)benzoic acid]
Second: CN(C(=O)c1cnn2c1CN(C(=O)Nc1ccc(F)c(Cl)c1)CC2)C1(c2ccccc2C(=O)O)CC1 [Example 29, 2-(1-{N-methyl-5-[(3-chloro-4-fluorophenyl)carbamoyl]-4H,5H,6H,7H-pyrazolo[1,5-a]pyrazine-3-amido}cyclopropyl)benzoic acid]
The EC50 of the first is higher: 1000 to 10000 nM for the first, under 1000 nM for the second.
